Assay results published in ChEMBL document CHEMBL5608189, “Design and synthesis of unique indole-benzosulfonamide oleanolic acid derivatives as potent antibacterial agents against MRSA” (Eur J Med Chem, 2024).
≈ marks a conversion by molar mass, not a printed value.

Tests used:
Assay type in all cases: functional
[1] = system: Staphylococcus aureus; experiment: Antibacterial activity against Staphylococcus aureus ATCC 6538 measured after 24 hrs by susceptibility assay
[2] = system: Staphylococcus epidermidis; experiment: Antibacterial activity against Staphylococcus epidermidis ATCC 12228 measured after 24 hrs by susceptibility assay
[3] = system: Staphylococcus aureus; experiment: Antibacterial activity against methicillin-resistant Staphylococcus aureus measured after 24 hrs by susceptibility assay
[4] = system: Staphylococcus aureus; experiment: Antibacterial activity against Staphylococcus aureus ATCC 29213 measured after 24 hrs by susceptibility assay

COc1ccc(S(=O)(=O)NC(=O)[C@]23CCC(C)(C)C[C@H]2C2=CC[C@@H]4[C@@]5(C)Cc6c([nH]c7c(C(=O)O)cccc67)C(C)(C)[C@@H]5CC[C@@]4(C)[C@]2(C)CC3)cc1 was tested, and the MIC [1] was 2 µM (≈ 1.48 µg/mL), the MIC [2] was 2 µM (≈ 1.48 µg/mL) and the MIC [3] was 4 µM (≈ 2.96 µg/mL). For the same molecule, the MIC [4] was 1 µM (≈ 0.741 µg/mL).

Cc1ccc(S(=O)(=O)NC(=O)[C@]23CCC(C)(C)C[C@H]2C2=CC[C@@H]4[C@@]5(C)Cc6c([nH]c7ccc(C(=O)O)cc67)C(C)(C)[C@@H]5CC[C@@]4(C)[C@]2(C)CC3)cc1 was tested, and the MIC [1] was 1 µM (≈ 0.725 µg/mL), the MIC [2] was 1 µM (≈ 0.725 µg/mL) and the MIC [3] was 2 µM (≈ 1.45 µg/mL). For the same molecule, the MIC [4] was 1 µM (≈ 0.725 µg/mL).

CC1(C)CC[C@]2(C(=O)NS(=O)(=O)c3ccccc3)CC[C@]3(C)C(=CC[C@@H]4[C@@]5(C)Cc6c([nH]c7ccc(Br)cc67)C(C)(C)[C@@H]5CC[C@]43C)[C@@H]2C1 gave an MIC [1] of over 256 µM, an MIC [2] of over 256 µM and an MIC [3] of over 256 µM. It also gave an MIC [4] of over 256 µM.

In the case of CC1(C)CC[C@]2(C(=O)NS(=O)(=O)c3ccc(C(=O)O)cc3)CC[C@]3(C)C(=CC[C@@H]4[C@@]5(C)Cc6c([nH]c7cccc(C(=O)O)c67)C(C)(C)[C@@H]5CC[C@]43C)[C@@H]2C1, the MIC [1] was 64 µM (≈ 48.3 µg/mL), the MIC [2] was 256 µM (≈ 193 µg/mL) and the MIC [3] was 256 µM (≈ 193 µg/mL). The MIC [4] was 128 µM (≈ 96.6 µg/mL).

CC1(C)CC[C@]2(C(=O)Nc3ccc(-c4ccccc4)cc3)CC[C@]3(C)C(=CC[C@@H]4[C@@]5(C)Cc6c([nH]c7ccc(C(=O)O)cc67)C(C)(C)[C@@H]5CC[C@]43C)[C@@H]2C1 gave an MIC [1] of over 256 µM, an MIC [2] of over 256 µM and an MIC [3] of over 256 µM. It also gave an MIC [4] of over 256 µM.

CC1(C)CC[C@]2(C(=O)NS(=O)(=O)c3ccc(C(=O)O)cc3)CC[C@]3(C)C(=CC[C@@H]4[C@@]5(C)Cc6c([nH]c7c(C(=O)O)cccc67)C(C)(C)[C@@H]5CC[C@]43C)[C@@H]2C1 showed an MIC [1] of 0.5 µM (≈ 0.377 µg/mL), an MIC [2] of 1 µM (≈ 0.755 µg/mL) and an MIC [3] of 1 µM (≈ 0.755 µg/mL). The MIC [4] was 2 µM (≈ 1.51 µg/mL).

COc1ccc(S(=O)(=O)NC(=O)[C@]23CCC(C)(C)C[C@H]2C2=CC[C@@H]4[C@@]5(C)CCC(=O)C(C)(C)[C@@H]5CC[C@@]4(C)[C@]2(C)CC3)cc1 was tested, and the MIC [1] was over 256 µM, the MIC [2] was over 256 µM and the MIC [3] was over 256 µM. The MIC [4] was over 256 µM.

CC1(C)CC[C@]2(C(=O)NS(=O)(=O)c3ccccc3)CC[C@]3(C)C(=CC[C@@H]4[C@@]5(C)Cc6c([nH]c7ccc(C(=O)O)cc67)C(C)(C)[C@@H]5CC[C@]43C)[C@@H]2C1 gave an MIC [1] of 1 µM (≈ 0.711 µg/mL), an MIC [2] of 2 µM (≈ 1.42 µg/mL) and an MIC [3] of 1 µM (≈ 0.711 µg/mL). For the same molecule, the MIC [4] was 2 µM (≈ 1.42 µg/mL).

Work on CN[C@H](CC(C)C)C(=O)N[C@H]1C(=O)N[C@@H](CC(N)=O)C(=O)N[C@H]2C(=O)N[C@H]3C(=O)N[C@H](C(=O)N[C@H](C(=O)O)c4cc(O)cc(O)c4-c4cc3ccc4O)[C@H](O)c3ccc(c(Cl)c3)Oc3cc2cc(c3O[C@@H]2O[C@H](CO)[C@@H](O)[C@H](O)[C@H]2O[C@H]2C[C@](C)(N)[C@H](O)[C@H](C)O2)Oc2ccc(cc2Cl)[C@H]1O [VANCOMYCIN] yielded an MIC [1] of 0.5 µM (≈ 0.725 µg/mL), an MIC [2] of 0.5 µM (≈ 0.725 µg/mL) and an MIC [3] of 0.5 µM (≈ 0.725 µg/mL). For the same molecule, the MIC [4] was 0.5 µM (≈ 0.725 µg/mL).

Work on COc1ccc(S(=O)(=O)NC(=O)[C@]23CCC(C)(C)C[C@H]2C2=CC[C@@H]4[C@@]5(C)Cc6c([nH]c7ccc(C(=O)O)cc67)C(C)(C)[C@@H]5CC[C@@]4(C)[C@]2(C)CC3)cc1 yielded an MIC [1] of 0.5 µM (≈ 0.371 µg/mL), an MIC [2] of 2 µM (≈ 1.48 µg/mL) and an MIC [3] of 2 µM (≈ 1.48 µg/mL). For the same molecule, the MIC [4] was 2 µM (≈ 1.48 µg/mL).

Molecule CC(=O)c1cccc2[nH]c3c(c12)C[C@]1(C)[C@H]2CC=C4[C@@H]5CC(C)(C)CC[C@]5(C(=O)NS(=O)(=O)c5ccccc5)CC[C@@]4(C)[C@]2(C)CC[C@H]1C3(C)C has an MIC [1] of 4 µM (≈ 2.84 µg/mL), an MIC [2] of 2 µM (≈ 1.42 µg/mL) and an MIC [3] of 4 µM (≈ 2.84 µg/mL). For the same molecule, the MIC [4] was 4 µM (≈ 2.84 µg/mL).

With CC1(C)CC[C@]2(C(=O)Nc3ccc(-c4ccccc4)cc3)CC[C@]3(C)C(=CC[C@@H]4[C@@]5(C)CCC(=O)C(C)(C)[C@@H]5CC[C@]43C)[C@@H]2C1 the MIC [1] was over 256 µM, the MIC [2] was over 256 µM and the MIC [3] was over 256 µM. The MIC [4] was over 256 µM.

For CC1(C)CC[C@]2(C(=O)NS(=O)(=O)c3ccc(C(=O)O)cc3)CC[C@]3(C)C(=CC[C@@H]4[C@@]5(C)Cc6c([nH]c7cc(C(=O)O)ccc67)C(C)(C)[C@@H]5CC[C@]43C)[C@@H]2C1, the MIC [1] was 1 µM (≈ 0.755 µg/mL), the MIC [2] was 4 µM (≈ 3.02 µg/mL) and the MIC [3] was 2 µM (≈ 1.51 µg/mL). It also gave an MIC [4] of 2 µM (≈ 1.51 µg/mL).

In the case of CC1(C)CC[C@]2(C(=O)NS(=O)(=O)c3ccccc3)CC[C@]3(C)C(=CC[C@@H]4[C@@]5(C)CCC(=O)C(C)(C)[C@@H]5CC[C@]43C)[C@@H]2C1, the MIC [1] was 128 µM (≈ 76 µg/mL), the MIC [2] was over 256 µM and the MIC [3] was over 256 µM. The MIC [4] was over 256 µM.

For CC1(C)CC[C@]2(C(=O)NS(=O)(=O)c3ccc(Cl)cc3)CC[C@]3(C)C(=CC[C@@H]4[C@@]5(C)Cc6c([nH]c7cccc(C(=O)O)c67)C(C)(C)[C@@H]5CC[C@]43C)[C@@H]2C1, the MIC [1] was 1 µM (≈ 0.745 µg/mL), the MIC [2] was 2 µM (≈ 1.49 µg/mL) and the MIC [3] was 2 µM (≈ 1.49 µg/mL). For the same molecule, the MIC [4] was 2 µM (≈ 1.49 µg/mL).

Molecule CC1(C)CC[C@]2(C(=O)Nc3ccc(-c4ccccc4)cc3)CC[C@]3(C)C(=CC[C@@H]4[C@@]5(C)Cc6c([nH]c7cccc(C(=O)O)c67)C(C)(C)[C@@H]5CC[C@]43C)[C@@H]2C1 has an MIC [1] of 32 µM (≈ 23.1 µg/mL), an MIC [2] of 64 µM (≈ 46.3 µg/mL) and an MIC [3] of 256 µM (≈ 185 µg/mL). It also gave an MIC [4] of 128 µM (≈ 92.5 µg/mL).

With CC1(C)CC[C@]2(C(=O)O)CC[C@]3(C)C(=CC[C@@H]4[C@@]5(C)CC[C@H](O)C(C)(C)[C@@H]5CC[C@]43C)[C@@H]2C1 [OLEANOLIC_ACID] the MIC [1] was 32 µM (≈ 14.6 µg/mL), the MIC [2] was 32 µM (≈ 14.6 µg/mL) and the MIC [3] was 32 µM (≈ 14.6 µg/mL). For the same molecule, the MIC [4] was 32 µM (≈ 14.6 µg/mL).
